We go through twelve molecules from US10052320B2, “Substituted quinoxalines as FGFR kinase inhibitors” (ASTEX THERAPEUTICS LIMITED, priority 2011, dated 2018).

One experiment addresses FGFR1 (h) (Homo sapiens, UniProt P11362). Description: FGFR1 (enzymatic assay), TR-FRET. To be noted: read-out: FGFR 1 pIC50 (converted). It is filed as biochemical. The method, then:
In a final reaction volume of 30 μL, FGFR1 (h) (25 ng/ml) was incubated with 50 mM HEPES pH 7.5, 6 mM MnCl2, 1 mM DTT, 0.1 mM Na3VO4, 0.01% Triton-X-100, 500 nM Btn-Flt3 and 5 μM ATP in the presence of compound (1% DMSO final). […] Time-Resolved Fluorescence Resonance Energy Transfer (TR-FRET) signal (ex340 nm. Em 620 nm, em 655 nm) was measured afterwards and results are expressed in RFU (Relative Fluorescence Units).

For the next experiment, the target named is FGFR3 (h) (Homo sapiens, UniProt P22607). Kind of experiment: FGFR3 (enzymatic assay), TR-FRET. It is filed as biochemical. To be noted: read-out: FGFR 3 pIC50 (converted). The method, then:
In a final reaction volume of 30 μL, FGFR3 (h) (40 ng/ml) was incubated with 50 mM HEPES pH 7.5, 6 mM MnCl2, 1 mM DTT, 0.1 mM Na3VO4, 0.01% Triton-X-100, 500 nM Btn-Flt3 and 25 μM ATP in the presence of compound (1% DMSO final). […] Time-Resolved Fluorescence Resonance Energy Transfer (TR-FRET) signal (ex340 nm. Em 620 nm, em 655 nm) was measured afterwards and results are expressed in RFU (Relative Fluorescence Units).
On the technique in general: TR-FRET usually uses a lanthanide donor and a delayed reading to cut background.

For another experiment, the target named is FGFR4 (h) (Homo sapiens, UniProt P22455). Kind of experiment: FGFR4 (enzymatic assay), TR-FRET. Conditions: read-out: FGFR 4 pIC50 (converted). It is filed as biochemical. The method, then: In a final reaction volume of 30 μL, FGFR4 (h) (60 ng/ml) was incubated with 50 mM HEPES pH 7.5, 6 mM MnCl2, 1 mM DTT, 0.1 mM Na3VO4, 0.01% Triton-X-100, 500 nM Btn-Flt3 and 5 μM ATP in the presence of compound (1% DMSO final). […] Time-Resolved Fluorescence Resonance Energy Transfer (TR-FRET) signal (ex340 nm. Em 620 nm, em 655 nm) was measured afterwards and results are expressed in RFU (Relative Fluorescence Units).
Sequence of FGFR4 (h) (P22455 22-802): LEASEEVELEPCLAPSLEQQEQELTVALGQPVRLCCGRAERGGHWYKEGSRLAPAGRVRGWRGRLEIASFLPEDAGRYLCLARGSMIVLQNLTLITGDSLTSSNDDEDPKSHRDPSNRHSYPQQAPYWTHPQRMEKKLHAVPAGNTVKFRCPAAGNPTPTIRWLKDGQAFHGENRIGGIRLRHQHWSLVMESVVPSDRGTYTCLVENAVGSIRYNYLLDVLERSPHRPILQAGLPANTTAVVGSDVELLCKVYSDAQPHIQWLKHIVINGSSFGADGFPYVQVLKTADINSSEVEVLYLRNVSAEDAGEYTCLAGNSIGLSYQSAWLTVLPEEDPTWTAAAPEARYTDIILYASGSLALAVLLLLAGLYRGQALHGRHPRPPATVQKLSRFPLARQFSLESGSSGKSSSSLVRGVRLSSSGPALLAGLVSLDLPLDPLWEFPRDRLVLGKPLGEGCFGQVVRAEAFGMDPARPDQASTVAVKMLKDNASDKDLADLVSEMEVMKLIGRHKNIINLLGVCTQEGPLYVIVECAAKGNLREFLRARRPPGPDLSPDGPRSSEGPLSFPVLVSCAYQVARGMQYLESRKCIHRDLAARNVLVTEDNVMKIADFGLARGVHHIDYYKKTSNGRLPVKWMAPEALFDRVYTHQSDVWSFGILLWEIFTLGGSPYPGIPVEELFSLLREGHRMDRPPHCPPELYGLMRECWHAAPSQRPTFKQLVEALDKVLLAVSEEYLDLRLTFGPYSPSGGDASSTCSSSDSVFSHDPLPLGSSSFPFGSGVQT

Experiment [1] concerns the target Ba/F3-FGFR3-transfected cells (Homo sapiens, UniProt P22607). Kind of experiment: Ba/F3-FGFR3 (minus IL3) cellular proliferation assay, Alamar Blue. It is filed as cell-based. To be noted: for BAF3-FGFR 3 (MIN IL3) 384 well pIC50: minus IL3, 384 well; for BAF3-FGFR 3 (MIN IL3) 96 well pIC50: minus IL3, 96 well. The essentials:
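Counterscreen adds 10 ng/ml murine IL3, otherwise matching the IL3-free run. In both, FGFR3-transfected Ba/F3 cells (20000 or 10000 per well) incubate with compound for 24 h at 37° C. and 5% CO2; viability is read as resazurin fluorescence (540/590 nm) after 4 h with Alamar Blue.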
For orientation: Resazurin is reduced to fluorescent resorufin, in cell work by metabolically active cells.

In experiment [2] the test system is Ba/F3-Flt3-transfected cells in the presence of 10 ng/ml murine IL3. Description: Ba/F3-Flt3 (plus IL3) cellular proliferation counterscreen, Alamar Blue. It is filed as cell-based. To be noted: Mus musculus; plus 10 ng/ml murine IL3; read-out: BAF3-FLT3 (PLUS IL3) 384 well pIC50 (converted). Background: The purpose of a counterscreen is to sort out artefacts and off-target activity.

Sequence of FGFR3 (h) (P22607 23-806): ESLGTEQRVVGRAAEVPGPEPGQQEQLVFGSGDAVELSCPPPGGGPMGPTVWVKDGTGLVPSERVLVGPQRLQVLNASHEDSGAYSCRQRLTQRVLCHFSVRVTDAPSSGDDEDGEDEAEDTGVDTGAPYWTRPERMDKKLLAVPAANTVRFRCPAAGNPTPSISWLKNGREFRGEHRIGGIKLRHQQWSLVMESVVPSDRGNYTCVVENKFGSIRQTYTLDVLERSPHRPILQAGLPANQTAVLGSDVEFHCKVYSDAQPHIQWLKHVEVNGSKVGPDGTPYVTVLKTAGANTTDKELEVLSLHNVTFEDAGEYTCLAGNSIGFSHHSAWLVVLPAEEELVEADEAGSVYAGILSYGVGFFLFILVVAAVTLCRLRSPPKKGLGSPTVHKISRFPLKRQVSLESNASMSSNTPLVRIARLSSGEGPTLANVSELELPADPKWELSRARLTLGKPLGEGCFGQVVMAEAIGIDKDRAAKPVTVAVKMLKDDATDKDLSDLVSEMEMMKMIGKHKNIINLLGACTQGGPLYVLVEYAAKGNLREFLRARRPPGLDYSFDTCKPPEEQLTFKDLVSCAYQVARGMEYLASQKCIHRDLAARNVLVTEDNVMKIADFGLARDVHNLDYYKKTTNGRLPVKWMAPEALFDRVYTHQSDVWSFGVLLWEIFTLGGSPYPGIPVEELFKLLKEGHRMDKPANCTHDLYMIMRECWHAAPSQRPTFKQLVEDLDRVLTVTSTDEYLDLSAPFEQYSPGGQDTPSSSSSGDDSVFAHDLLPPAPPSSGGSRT
Sequence of Ba/F3-FGFR3-transfected cells (P22607 whole entry, change not shown): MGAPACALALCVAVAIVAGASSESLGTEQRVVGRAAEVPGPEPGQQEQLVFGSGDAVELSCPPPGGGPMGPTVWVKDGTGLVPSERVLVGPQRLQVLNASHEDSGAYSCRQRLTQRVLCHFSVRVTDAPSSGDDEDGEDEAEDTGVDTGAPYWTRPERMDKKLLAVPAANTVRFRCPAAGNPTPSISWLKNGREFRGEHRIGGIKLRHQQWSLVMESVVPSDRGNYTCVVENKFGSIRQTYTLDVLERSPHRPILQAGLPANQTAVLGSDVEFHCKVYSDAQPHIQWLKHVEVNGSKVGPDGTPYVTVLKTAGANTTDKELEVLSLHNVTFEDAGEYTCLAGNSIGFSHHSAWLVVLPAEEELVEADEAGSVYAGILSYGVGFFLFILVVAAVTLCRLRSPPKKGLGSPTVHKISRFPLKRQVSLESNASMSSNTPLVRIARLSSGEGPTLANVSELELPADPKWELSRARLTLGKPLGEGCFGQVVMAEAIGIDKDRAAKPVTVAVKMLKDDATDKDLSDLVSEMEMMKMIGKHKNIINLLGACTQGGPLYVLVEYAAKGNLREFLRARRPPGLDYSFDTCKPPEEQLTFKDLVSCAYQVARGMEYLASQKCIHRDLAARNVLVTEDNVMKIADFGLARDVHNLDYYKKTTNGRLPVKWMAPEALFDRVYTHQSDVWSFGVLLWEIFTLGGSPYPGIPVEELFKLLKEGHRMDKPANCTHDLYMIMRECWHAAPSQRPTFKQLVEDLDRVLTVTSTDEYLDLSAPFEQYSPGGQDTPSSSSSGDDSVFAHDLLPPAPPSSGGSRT
Sequence of FGFR1 (h) (P11362 22-822): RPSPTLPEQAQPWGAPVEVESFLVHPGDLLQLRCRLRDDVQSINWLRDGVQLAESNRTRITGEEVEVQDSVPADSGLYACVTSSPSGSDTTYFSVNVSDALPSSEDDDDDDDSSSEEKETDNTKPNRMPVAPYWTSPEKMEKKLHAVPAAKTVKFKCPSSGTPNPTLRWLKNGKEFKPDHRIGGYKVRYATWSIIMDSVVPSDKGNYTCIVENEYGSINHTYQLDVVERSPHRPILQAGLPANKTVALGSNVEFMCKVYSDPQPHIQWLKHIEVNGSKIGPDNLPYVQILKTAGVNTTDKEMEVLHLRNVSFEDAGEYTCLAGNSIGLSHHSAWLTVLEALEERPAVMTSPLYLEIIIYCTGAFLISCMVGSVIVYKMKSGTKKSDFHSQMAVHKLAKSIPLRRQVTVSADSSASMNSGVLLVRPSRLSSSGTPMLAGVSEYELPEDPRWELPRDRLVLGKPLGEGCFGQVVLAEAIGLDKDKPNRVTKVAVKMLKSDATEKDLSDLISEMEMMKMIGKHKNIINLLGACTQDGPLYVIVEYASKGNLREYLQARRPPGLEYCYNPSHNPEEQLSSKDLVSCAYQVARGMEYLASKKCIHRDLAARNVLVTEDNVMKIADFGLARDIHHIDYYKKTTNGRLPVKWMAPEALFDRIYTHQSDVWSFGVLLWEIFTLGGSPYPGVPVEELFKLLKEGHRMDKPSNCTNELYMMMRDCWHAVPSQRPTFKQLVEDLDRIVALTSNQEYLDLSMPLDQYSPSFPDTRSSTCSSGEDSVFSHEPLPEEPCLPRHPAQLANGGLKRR

As for `COc1cc(OC)cc(N(CCNC(C)C)c2ccc3ncc(-c4cccnc4)nc3c2)c1` [Compound 10], the IC50 at FGFR1 (h) was 2.75 nM; at FGFR3 (h), 10.2 nM; at FGFR4 (h), 23.4 nM; in experiment [2], 9330 nM. Moreover, in experiment [1], the “BAF3-FGFR 3 (MIN IL3) 384 well pIC50” value stood at 7.53.
As to `COc1cc(OC)cc(N(CCO)c2ccc3ncc(-c4ccncc4)nc3c2)c1` [Compound 11], the IC50 on FGFR1 (h) was 8.13 nM; at FGFR3 (h) it was 4.47 nM; at FGFR4 (h), 41.7 nM; in experiment [2] it was > 10000 nM. Further, in experiment [1], the “BAF3-FGFR 3 (MIN IL3) 384 well pIC50” value was found to be 6.65.
`COc1cc(OC)cc(N(CCNC(C)C)c2ccc3ncc(-c4ccncc4)nc3c2)c1` [Compound 12]: the IC50 on FGFR1 (h) was 2.14 nM; on FGFR3 (h), 4.47 nM; at FGFR4 (h), 20.4 nM; in experiment [2], > 10000 nM. Besides, the “BAF3-FGFR 3 (MIN IL3) 384 well pIC50” value in experiment [1] is ~7.03.
`CNC(=O)c1cc(-c2cnc3ccc(N(CCNC(C)C)c4cc(OC)cc(OC)c4)cc3n2)ccn1` [Compound 14]: the IC50 at FGFR1 (h) is 6.17 nM; at FGFR3 (h) it was 9.55 nM; at FGFR4 (h) it was 41.7 nM; in experiment [2], > 10000 nM. Further, the “BAF3-FGFR 3 (MIN IL3) 384 well pIC50” value in experiment [1] is listed as 7.03.
For the molecule `COc1cc(OC)cc(N(CCNC(C)C)c2ccc3ncc(-c4ccc(N)nc4)nc3c2)c1` [Compound 17], the IC50 at FGFR1 (h) is 1.23 nM; at FGFR3 (h) it was 3.2 nM; on FGFR4 (h), 8.04 nM; in experiment [2], > 9550 nM. Moreover, the “BAF3-FGFR 3 (MIN IL3) 384 well pIC50” value in experiment [1] is reported as ~7.09.
As to `COc1cc(OC)cc(N(CC2CC2)c2ccc3ncc(C#Cc4ccncc4)nc3c2)c1` [Compound 23], the IC50 at FGFR1 (h) is 501 nM; at FGFR3 (h), 214 nM; on FGFR4 (h) it was > 1000 nM; in experiment [2], > 10000 nM. In addition, in experiment [1], the “BAF3-FGFR 3 (MIN IL3) 96 well pIC50” value worked out at 5.66. In addition, in experiment [1], the “BAF3-FGFR 3 (MIN IL3) 384 well pIC50” value worked out at 5.1.
`COc1cc(OC)cc(N(CC2CC2)c2ccc3ncc(-c4cn(CCN5CCOCC5)nn4)nc3c2)c1` [Compound 24]: the IC50 on FGFR1 (h) was 20.4 nM; on FGFR3 (h), 9.55 nM; on FGFR4 (h), 191 nM; in experiment [2], > 10000 nM. The “BAF3-FGFR 3 (MIN IL3) 96 well pIC50” value in experiment [1] is on record as 5.59. Also, the “BAF3-FGFR 3 (MIN IL3) 384 well pIC50” value in experiment [1] was ~5.7.
As for `CNC(=O)c1cc(-c2cnc3ccc(N(CCN4CCCC4=O)c4cc(OC)cc(OC)c4)cc3n2)ccn1` [Compound 25], the IC50 at FGFR1 (h) is 468 nM; on FGFR3 (h) it was 282 nM; at FGFR4 (h), > 1000 nM; in experiment [2], > 10000 nM. Besides, the “BAF3-FGFR 3 (MIN IL3) 384 well pIC50” value in experiment [1] is 5.13.
Turning to `COc1cc(OC)cc(N(CC2CC2)c2ccc3ncc(-n4cnc(C)c4)nc3c2)c1` [Compound 30], the IC50 at FGFR1 (h) is 51.3 nM; on FGFR3 (h), 26.9 nM; at FGFR4 (h), 214 nM; in experiment [2], > 10000 nM. Moreover, the “BAF3-FGFR 3 (MIN IL3) 96 well pIC50” value in experiment [1] is 5.94. Moreover, the “BAF3-FGFR 3 (MIN IL3) 384 well pIC50” value in experiment [1] is given as 5.51.
Regarding `COc1cc(OC)cc(N(CC2CC2)c2ccc3ncc(-n4ccc(C)n4)nc3c2)c1` [Compound 31], the IC50 was 933 nM at FGFR1 (h), 339 nM at FGFR3 (h), 776 nM on FGFR4 (h) and > 10000 nM in experiment [2]. Besides, the “BAF3-FGFR 3 (MIN IL3) 96 well pIC50” value in experiment [1] is given as <5. Moreover, the “BAF3-FGFR 3 (MIN IL3) 384 well pIC50” value in experiment [1] is on record as <5.
`COc1cc(OC)cc(N(CC2CC2)c2ccc3ncc(-n4ccnc4C)nc3c2)c1` [Compound 32]: the IC50 on FGFR1 (h) was 417 nM; on FGFR3 (h), 479 nM; at FGFR4 (h), > 1000 nM; in experiment [2] it was > 10000 nM. The “BAF3-FGFR 3 (MIN IL3) 96 well pIC50” value in experiment [1] is given as <5. In experiment [1], the “BAF3-FGFR 3 (MIN IL3) 384 well pIC50” value is on record as <5.
As for `COc1cc(OC)cc(N(CCCO)c2ccc3ncc(-c4ccnc(C(=O)NCCCN)c4)nc3c2)c1` [Compound 33], the IC50 was 12.6 nM on FGFR1 (h), 19.1 nM at FGFR3 (h), 115 nM on FGFR4 (h) and > 10000 nM in experiment [2]. Further, in experiment [1], the “BAF3-FGFR 3 (MIN IL3) 384 well pIC50” value was determined as 5.51.
